Where “and” joins values, the source holds several entries; their conditions need not be identical. Equal entries are not always repeated.
Target: T1, hP2X7R (Homo sapiens, UniProt Q99572)
T1 sequence (Q99572 1-595): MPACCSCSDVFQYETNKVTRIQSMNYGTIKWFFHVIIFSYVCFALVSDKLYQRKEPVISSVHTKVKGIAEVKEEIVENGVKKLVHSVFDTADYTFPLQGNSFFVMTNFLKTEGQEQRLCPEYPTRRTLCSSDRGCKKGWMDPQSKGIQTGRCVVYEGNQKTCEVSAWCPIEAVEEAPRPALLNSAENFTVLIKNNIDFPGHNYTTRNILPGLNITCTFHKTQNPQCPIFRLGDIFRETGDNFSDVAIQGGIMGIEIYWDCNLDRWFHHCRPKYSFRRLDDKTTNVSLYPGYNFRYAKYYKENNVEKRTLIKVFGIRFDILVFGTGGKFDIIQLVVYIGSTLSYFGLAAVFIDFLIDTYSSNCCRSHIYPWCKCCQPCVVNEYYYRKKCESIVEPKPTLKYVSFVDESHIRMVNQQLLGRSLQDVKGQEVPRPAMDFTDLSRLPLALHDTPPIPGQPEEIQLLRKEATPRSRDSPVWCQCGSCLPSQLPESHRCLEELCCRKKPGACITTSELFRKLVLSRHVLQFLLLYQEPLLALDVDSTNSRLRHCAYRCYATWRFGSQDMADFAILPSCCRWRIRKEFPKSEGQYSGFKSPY
Assay: TEVC determination of antagonist binding kinetics in Xenopus oocytes
Format: cell-based
Set-up: expressed in transfected cells; host or cells: Xenopus laevis oocytes injected with capped cRNA (modified pUC19 vector, T7)
Conditions: for IC50: Supplementary Fig. 10D, read-out: IC50 from binding equilibrium (plateau) dose inhibition curve; for off-rate of binding to the hP2X7R: graphically determined (y-intercept); for off-rate, Response [%]: single replicates
Procedure: Xenopus laevis frogs were from Nasco International (Fort Atkinson, WI) and kept at the Core Facility Animal Models (CAM) of the Biomedical Center (BMC) of LMU Munich, Germany (Az:4.3.2–5682/LMU/BMC/CAM) in accordance with the EU Animal Welfare Act. Ovaries were surgically extracted (ROB_54-011-AZ 2532.Vet_02-23-166), treated with collagenase (Nordmark, Uetersen, Germany 1.0–1.5 mg/mL, ≥2 at RT) and defolliculated (15-min treatment in Ca^2+-free oocyte Ringer (90 mM NaCl, 1 mM KCl, 2 mM MgCl2, 5 mM HEPES), respectively. 50 nL of cRNA (0.5 µg/µL) were injected using a Nanoject II injector (Science Products, Drummond) and oocytes were kept in ND96 (96 mM NaCl, 2 mM KCl, 1 mM MgCl2, 1 mM CaCl2, 5 mM HEPES, pH 7.4–7.5). The plasmid containing the hP2X7R was linearized with NotI-HF (NEB) and purified with the MinElute Reaction Cleanup Kit (Qiagen, Hilden, Germany). Capped cRNA was synthesized using the mMESSAGE mMACHINE™ T7 Transcription Kit (ThermoFisher Scientific, Schwerte, Germany) and dissolved in nuclease-free water (500 ng/µL). Injected oocytes were allowed to express for at least 36 hours.
Two-electrode voltage clamp recordings were performed at room temperature and a holding potential of −70 mV using a Turbo Tec-05X Amplifier (npi electronic, Tamm, Germany), a magnetic valve system, and CellWorks E 5.5.1 software. Currents were filtered at 1 kHz and digitized at 200 Hz. Electrode resistances were below 1.2 MΩ. […] Recordings were performed in ND96.
After obtaining reproducible agonist-evoked responses, solutions were switched to antagonist-containing recording solutions with and without ATP to determine association rates. Responses following antagonist application were normalized to the preceding, stabilized agonist responses. Dissociation was determined in 1- or 2 min intervals when currents were reduced to <10%. Association curves were fit to the data by the equation % Response = (100-Plateau)*exp(-kobs*Time) + Plateau, where Plateau indicates the response at equilibrium and kobs the experimentally determined on-rate. All data were analyzed using Prism software (GraphPad Software, Inc., Version 8.3.0, San Diego, CA) and are presented as means ± SD from at least three oocytes. […] The final concentration of DMSO in the recording solution was ≤1%.
Supplementary Fig. 10: Kinetics of ligands binding to the hP2X7R measured by TEVC. (A) […]
All data represented as mean ± S.D. with n=3, 7, 7, and 7 f or the experiments performed at 3 nM, 10 nM, 30 nM, and 100 nM […]
(B) Representative current traces for t he activation
(C) On- and off-r at e constants and Ki
Observed on- r at es kobs were determined by fitting the data (Fig. 4H, Supplementary Fig. 10A) to the function: % response = (100- Plateau)*exp(-kobs*time)+Plateau and plotted against the antagonist concentrations to obtain koff according to k obs=kon*F+koff. Assuming a (simplified) 1:1 binding model, of f-r at e constant koff and Ki values were estimated using the previous formulas as well as Ki=koff/kon. […]
determined by Ca2+ imaging (18 nM, Fig. 3B ) and the binding equilibrium reached at each […]
values of UB-MBX-46 c annot reflect an accurate value due to the nearly negligible dissociation on the timescale of the experiment. If k off was estimated based on the IC50 value (IC50 = koff/kon panel D), a more accurate koff value can be obtained. Numbers in square brackets are 95% Confidence Intervals. *values obtained from an extrapolated dose inhibition curve from D . (D) The plateau values, representing the binding equilibrium, were used to generate dose inhibition

## O=C(NNc1ccccc1Cl)C12CC3CC(CC(C3)C1)C2 [UB-ALT-P30, reference compound]
Ki=koff/kon, 1:1 binding model
  Ki: 28 nM
TEVC
  IC50: 15 nM
  off-rate of binding to the hP2X7R: 0.29 min⁻¹
Log [Antagonist] M -7
  Response %, plateau (binding equilibrium): 5.6% and 1.4% and 0% and 2.8%
Log [Antagonist] M -8
  Response %, plateau (binding equilibrium): 55.2% and 63.2% and 73.1%
Time 2 min
  off-rate, Response [%]: 6.1% and 5.1% and 4% and 3.2% and 6.5%
Time 4 min
  off-rate, Response [%]: 18.2% and 19.2% and 16% and 12.9% and 19.4%
Time 6 min
  off-rate, Response [%]: 33.3% and 37.2% and 28% and 29% and 32.3%
Time 8 min
  off-rate, Response [%]: 48.5% and 57.7% and 44% and 38.7% and 48.4%
Time 10 min
  off-rate, Response [%]: 63.6% and 73.1% and 60% and 54.8% and 64.5%

## CC12CC3CC1(C)C1(C)CC3(C(=O)NNc3ccccc3Cl)CC21C [UB-MBX-46]
3 nM, 8 min
  Response [%], on-rate to hP2X7R: 81.7% and 82.6% and 84.4%
3 nM, 10 min
  Response [%], on-rate to hP2X7R: 79.7% and 80.2% and 82.1%
3 nM, 12 min
  Response [%], on-rate to hP2X7R: 77.1% and 77.3% and 80.4%
3 nM, 14 min
  Response [%], on-rate to hP2X7R: 75.7% and 75% and 78.9%
3 nM, 16 min
  Response [%], on-rate to hP2X7R: 74.3% and 73.3% and 77.9%
3 nM, 18 min
  Response [%], on-rate to hP2X7R: 72.4% and 72% and 76.9%
3 nM, 20 min
  Response [%], on-rate to hP2X7R: 71.3% and 75.5%
3 nM, 22 min
  Response [%], on-rate to hP2X7R: 71.1% and 69.9% and 74.3%
3 nM, 24 min
  Response [%], on-rate to hP2X7R: 70.1% and 68.7% and 73%
3 nM, 26 min
  Response [%], on-rate to hP2X7R: 68.4% and 67% and 71.9%
3 nM, 28 min
  Response [%], on-rate to hP2X7R: 67.5%
10 nM, 8 min
  Response [%], on-rate to hP2X7R: 46.2% and 42.1% and 45.9% and 43.2%
10 nM, 10 min
  Response [%], on-rate to hP2X7R: 38.5% and 32.7% and 36.4% and 35.2%
10 nM, 12 min
  Response [%], on-rate to hP2X7R: 32.3% and 28.4% and 29.5% and 27.9%
10 nM, 14 min
  Response [%], on-rate to hP2X7R: 27.8% and 23.8% and 23.7% and 22%
10 nM, 16 min
  Response [%], on-rate to hP2X7R: 24.1% and 19.5% and 19% and 18.8%
10 nM, 18 min
  Response [%], on-rate to hP2X7R: 21.6% and 17% and 14.3% and 15.8%
10 nM, 20 min
  Response [%], on-rate to hP2X7R: 17.8% and 14.3% and 12.1% and 13.7%
10 nM, 22 min
  Response [%], on-rate to hP2X7R: 14.9% and 12.5% and 10.6% and 11.9%
10 nM, 24 min
  Response [%], on-rate to hP2X7R: 12.6% and 11.2% and 8.8% and 10.6%
10 nM, 26 min
  Response [%], on-rate to hP2X7R: 11% and 9.8% and 7.8% and 9.3%
30 nM, 10 min
  Response [%], on-rate to hP2X7R: 13.8% and 4.3% and 7.1% and 7.5%
30 nM, 12 min
  Response [%], on-rate to hP2X7R: 8.8% and 2.5% and 5.3% and 5.2%
30 nM, 14 min
  Response [%], on-rate to hP2X7R: 6% and 1.6% and 3.8% and 3.4%
30 nM, 16 min
  Response [%], on-rate to hP2X7R: 4.7% and 0.9% and 2.8% and 2.9%
30 nM, 18 min
  Response [%], on-rate to hP2X7R: 3% and 0.6% and 2.3% and 2%
30 nM, 20 min
  Response [%], on-rate to hP2X7R: 1.7% and 0.4% and 2%
30 nM, 22 min
  Response [%], on-rate to hP2X7R: 1.2% and 0.4% and 1.8%
100 nM, 8 min
  Response [%], on-rate to hP2X7R: 0.4% and 0.9% and 0.6% and 1.9%
TEVC, 300 µM ATP, 100 nM antagonist
  antagonism of the hP2X7R: strong antagonism
TEVC
  IC50: 3.8 nM
  off-rate of binding to the hP2X7R: 0.07 min⁻¹
Log [Antagonist] M -7
  Response %, plateau (binding equilibrium): 0.2985% and 1.206% and 0.0001019% and 1.64%
Log [Antagonist] M -7.5
  Response %, plateau (binding equilibrium): 0.2898% and 1.031% and 2.642% and 2.211%
Log [Antagonist] M -8
  Response %, plateau (binding equilibrium): 7.079% and 5.855% and 4.45E-19% and 3.075%
Log [Antagonist] M -8.5
  Response %, plateau (binding equilibrium): 67.01% and 62.07% and 63.87%
Time 1 min
  off-rate, Response [%]: 2.6% and 0.9% and 1.5%
Time 2 min
  off-rate, Response [%]: 2.8% and 1.3% and 1.5%
Time 3 min
  off-rate, Response [%]: 3.3% and 1.5% (2×)
Time 4 min
  off-rate, Response [%]: 3.1% and 1.7% and 1.5%
Time 5 min
  off-rate, Response [%]: 2.6% and 1.7% and 1.5%
Time 6 min
  off-rate, Response [%]: 2.6% and 2% and 1.5%
Time 7 min
  off-rate, Response [%]: 2.9% and 2.3% and 1.5%
Time 8 min
  off-rate, Response [%]: 2.9% and 2.3% and 1.5%
Time 9 min
  off-rate, Response [%]: 2.9% and 2.5% and 1.5%
Time 10 min
  off-rate, Response [%]: 3.3% and 2.5% and 1.5%
Within 10 min of wash-out
  antagonist dissociation from the hP2X7R: virtually irreversible binding

Source: PMC12436592 (Nature Communications, 2025)
